What was measured:
[1] = Resistance index, ratio of IC50 for multidrug resistant Plasmodium falciparum NHP1337 to IC50 for multidrug sensitive Plasmodium falciparum HB3; format: functional
[2] = Selectivity ratio of IC50 for human HeLa cells to IC50 for multidrug sensitive Plasmodium falciparum HB3; format: ADME, cell-based; settings: for selectivity ratio: HeLa cells versus Plasmodium falciparum HB3, read-out: Ratio IC50; for Ratio IC50: hela
[3] = Selectivity ratio of IC50 for human HeLa cells to IC50 for multidrug resistant Plasmodium falciparum NHP1337; format: ADME, cell-based; settings: for selectivity ratio: HeLa cells versus Plasmodium falciparum NHP1337, read-out: Ratio IC50; for Ratio IC50: hela
HeLa = assay: Cytotoxicity against human HeLa cells assessed as growth inhibition by sulforhodamine B assay; format: cell-based
Plasmodium falciparum [4] = assay: Antimalarial activity against multidrug sensitive Plasmodium falciparum HB3 assessed as growth inhibition after 72 hrs by SYBR Green based fluorescence assay; format: functional, organism-based
Plasmodium falciparum [5] = assay: Antimalarial activity against multidrug resistant Plasmodium falciparum NHP1337 assessed as growth inhibition after 72 hrs by SYBR Green based fluorescence assay; format: functional, organism-based
[6] = Plasmodium falciparum, HB3, 72 h
[7] = Plasmodium falciparum, NHP1337, 72 h

Row | SMILES | Ratio IC50 [1] | selectivity ratio [2] | selectivity ratio [3] | IC50 (HeLa; Homo sapiens, HeLa) [nM] | IC50 (Plasmodium falciparum [4]; [6]) [nM] | IC50 (Plasmodium falciparum [5]; [7]) [nM] | Ratio IC50 [2] | Ratio IC50 [3] | IC50 (HeLa; hela) [nM] | IC50 (Plasmodium falciparum [5]) [nM] | IC50 (Plasmodium falciparum [4]) [nM]
1 | C[C@@H]1O[C@@H](Oc2c(-c3ccc(O)cc3)oc3cc(O)cc(O)c3c2=O)[C@H](OC(=O)/C=C/c2ccc(O)cc2)[C@H](OC(=O)/C=C\c2ccc(O)cc2)[C@H]1O | 2 | 6 | 3 | 11900 | 2000 | 4000 |  |  |  |  | 
2 | CC(=O)O[C@@H]1[C@@H](OC(=O)/C=C\c2ccc(O)cc2)[C@H](Oc2c(-c3ccc(O)cc3)oc3cc(O)cc(O)c3c2=O)O[C@H](COC(=O)/C=C\c2ccc(O)cc2)[C@H]1OC(C)=O | 1.8 | < 1.4 | < 0.8 | < 3000 | 2100 | 3800 |  |  |  |  | 
3 | C=C(C)[C@@H]1CC[C@]2(CO)CC[C@]3(C)[C@H](CC[C@@H]4[C@@]5(C)CC[C@H](OC(=O)/C=C/c6ccc(O)cc6)[C@@](C)(CO)[C@@H]5CC[C@]43C)[C@@H]12 (stereo in doubt) [listing 1 of 2 here] | 0.7 |  |  |  |  |  |  |  |  |  | 
4 | C=C(C)[C@@H]1CC[C@]2(CO)CC[C@]3(C)[C@H](CC[C@@H]4[C@@]5(C)CC[C@H](OC(=O)/C=C/c6ccc(O)cc6)[C@@](C)(CO)[C@@H]5CC[C@]43C)[C@@H]12 (stereo in doubt; 6) [listing 1 of 2 here] |  |  |  |  | 1900 |  | > 11 | > 14 | > 20000 | 1400 | 
5 | C=C(C)[C@@H]1CC[C@]2(CO)CC[C@]3(C)[C@H](CC[C@@H]4[C@@]5(C)CC[C@H](O)[C@@](C)(COC(=O)/C=C/c6ccc(O)c(OC)c6)[C@@H]5CC[C@]43C)[C@@H]12 (stereo in doubt; 3) [listing 1 of 2 here] |  | > 40 | > 74 | > 20000 |  | 270 |  |  |  |  | 500
6 | C=C(C)[C@@H]1CC[C@]2(CO)CC[C@]3(C)[C@H](CC[C@@H]4[C@@]5(C)CC[C@H](O)[C@@](C)(CO)[C@@H]5CC[C@]43C)[C@@H]12 | 1.5 | > 5.9 | > 3.8 | > 20000 | 3400 | 5200 |  |  |  |  | 
7 | COc1cc(O)c(-c2c(C)cc(O)c3c2C(=O)c2cccc(O)c2C3=O)c(O)c1C(C)=O [KNIPHOLONE] | 1 | 6.6 | 6.5 | 32300 |  | 5000 |  |  |  |  | 
8 | O=c1cc(-c2ccc(O)c(-c3c(O)cc(O)c4c(=O)cc(-c5ccc(O)cc5)oc34)c2)oc2cc(O)cc(O)c12 [AMENTOFLAVONE] | 0.8 | 1.9 | 2.4 | 46400 | 25000 | 19000 |  |  |  |  | 
9 | C=C(C)[C@@H]1CC[C@]2(CO)CC[C@]3(C)[C@H](CC[C@@H]4[C@@]5(C)CC[C@H](O)[C@@](C)(COC(=O)/C=C\c6ccc(O)cc6)[C@@H]5CC[C@]43C)[C@@H]12 | 1.9 | 8.8 | 4.6 | 7000 | 800 | 1530 |  |  |  |  | 
10 | CC(=O)O[C@@H]1[C@@H](OC(=O)/C=C/c2ccc(O)cc2)[C@H](Oc2c(-c3ccc(O)cc3)oc3cc(O)cc(O)c3c2=O)O[C@H](COC(=O)/C=C/c2ccc(O)cc2)[C@H]1OC(C)=O | 3.5 | < 5 | < 1.4 | < 3000 | 600 | 2100 |  |  |  |  | 
11 | C=C(C)[C@@H]1CC[C@]2(CO)CC[C@]3(C)[C@H](CC[C@@H]4[C@@]5(C)CC[C@H](O)[C@@](C)(COC(=O)/C=C/c6ccc(O)c(OC)c6)[C@@H]5CC[C@]43C)[C@@H]12 (stereo in doubt) [listing 1 of 2 here] | 0.3 |  |  |  |  |  |  |  |  |  | 
12 | C=C(C)[C@@H]1CC[C@]2(CO)CC[C@]3(C)[C@H](CC[C@@H]4[C@@]5(C)CC[C@H](O)[C@@](C)(COC(=O)/C=C/c6ccc(O)cc6)[C@@H]5CC[C@]43C)[C@@H]12 | 0.9 | 31 | 33 | 28000 | 900 | 850 |  |  |  |  | 
13 | C=C(C)[C@@H]1CC[C@]2(CO)CC[C@]3(C)[C@H](CC[C@@H]4[C@@]5(C)CC[C@H](O)[C@@](C)(COC(=O)/C=C/c6ccc(O)c(OC)c6)[C@@H]5CC[C@]43C)[C@@H]12 (stereo in doubt; 3) [listing 2 of 2 here] | 0.5 |  |  |  |  |  |  |  |  |  | 
14 | C[C@@H]1O[C@@H](Oc2c(-c3ccc(O)cc3)oc3cc(O)cc(O)c3c2=O)[C@H](OC(=O)/C=C/c2ccc(O)cc2)[C@H](OC(=O)/C=C/c2ccc(O)cc2)[C@H]1O | 12 | 34 | 2.9 | 20600 | 600 | 7000 |  |  |  |  | 
15 | C=C(C)[C@@H]1CC[C@]2(CO)CC[C@]3(C)[C@H](CC[C@@H]4[C@@]5(C)CC[C@H](OC(=O)/C=C/c6ccc(O)cc6)[C@@](C)(CO)[C@@H]5CC[C@]43C)[C@@H]12 (stereo in doubt) [listing 2 of 2 here] |  | 9.6 | 14 | 22000 |  | 1600 |  |  |  |  | 2300
16 | CC(=O)O[C@@H]1[C@@H](OC(=O)/C=C/c2ccc(O)cc2)[C@H](Oc2c(-c3ccc(O)cc3)oc3cc(O)cc(O)c3c2=O)O[C@H](COC(=O)/C=C\c2ccc(O)cc2)[C@H]1OC(C)=O | 5 | < 3.8 | < 0.8 | < 3000 | 800 | 4000 |  |  |  |  | 
17 | CC(=O)O[C@@H]1[C@@H](OC(=O)/C=C\c2ccc(O)cc2)[C@H](Oc2c(-c3ccc(O)cc3)oc3cc(O)cc(O)c3c2=O)O[C@H](COC(=O)/C=C/c2ccc(O)cc2)[C@H]1OC(C)=O | 5.6 | < 3.3 | < 0.6 | < 3000 | 900 | 5000 |  |  |  |  | 
18 | C=C(C)[C@@H]1CC[C@]2(CO)CC[C@]3(C)[C@H](CC[C@@H]4[C@@]5(C)CC[C@H](O)[C@@](C)(COC(=O)/C=C/c6ccc(O)c(OC)c6)[C@@H]5CC[C@]43C)[C@@H]12 (stereo in doubt) [listing 2 of 2 here] |  |  |  |  | 1000 |  | 20 | 65 | 20000 | 310 | 
19 | C=C(C)[C@@H]1CC[C@]2(CO)CC[C@]3(C)[C@H](CC[C@@H]4[C@@]5(C)CC[C@H](OC(=O)/C=C/c6ccc(O)c(OC)c6)[C@@](C)(CO)[C@@H]5CC[C@]43C)[C@@H]12 | 0.8 | > 6.7 | > 8.7 | > 20000 | 3000 | 2300 |  |  |  |  | 
20 | C[C@@H]1O[C@@H](Oc2c(-c3ccc(O)cc3)oc3cc(O)cc(O)c3c2=O)[C@H](OC(=O)/C=C\c2ccc(O)cc2)[C@H](OC(=O)/C=C\c2ccc(O)cc2)[C@H]1O | 3.9 | 8.9 | 2.3 | 16000 | 1800 | 7000 |  |  |  |  | 
21 | C=C(C)[C@@H]1CC[C@]2(CO)CC[C@]3(C)[C@H](CC[C@@H]4[C@@]5(C)CC[C@H](OC(=O)/C=C/c6ccc(O)cc6)[C@@](C)(CO)[C@@H]5CC[C@]43C)[C@@H]12 (stereo in doubt; 6) [listing 2 of 2 here] | 0.7 |  |  |  |  |  |  |  |  |  | 
22 | C[C@@H]1O[C@@H](Oc2c(-c3ccc(O)cc3)oc3cc(O)cc(O)c3c2=O)[C@H](OC(=O)/C=C\c2ccc(O)cc2)[C@H](OC(=O)/C=C/c2ccc(O)cc2)[C@H]1O | 8.2 | 19 | 2.3 | 9300 | 500 | 4100 |  |  |  |  | 

— ChEMBL document CHEMBL3813696, “Identification of Compounds with Efficacy against Malaria Parasites from Common North American Plants” (J Nat Prod, 2016)
